Reference: article PMC11539218 (Antimicrobial Agents and Chemotherapy, 2024)

Key:
[1] = tested on: Peritoneal macrophages infected with L. (L.) infantum; test: Cytokines in infected macrophages (ELISA); type: cell-based, BALB/c mice; details: 48 and 72 h
Experimental: L. (L.) infantum (MHOM/BR/1972/LD) promastigotes were maintained in M199 medium supplemented with 10% FBS and 0.25% hemin, pH 7.2 at 24°C. Amastigotes were isolated from golden hamsters (M. auratus) by differential centrifugation of infected spleens and the parasite’s number was determined according to Stauber ([14]). Peritoneal macrophages were obtained from the peritoneal cavity of BALB/c mice and maintained in RPMI-1640 medium supplemented with 10% FBS, pH 7.2 at 37°C.
Peritoneal macrophages (1 × 10^6/well) were infected with L. (L.) infantum […] (10:1 amastigotes/macrophage) for 24 h, at 37°C with 5% CO2. Subsequently, compound 1 (10 and 60 µM) was added and the incubation followed the same conditions described above. Cell supernatants were collected after 48 and 72 h and the cytokines (IL-4, IL-10, IL-12, and INF-γ) were measured using the BD OptEIA Mouse ELISA set kits, according to the manufacturer’s instructions. Concanavalin A (5 µg/mL) was employed as positive control and untreated cells as negative control.

[2] = tested on: L. (L.) infantum promastigotes; test: Plasma membrane permeability (Sytox Green); type: cell-based, Leishmania (L.) infantum; details: compound 1 169.2 µM, Triton X-100 0.5%, up to 4 h
Experimental: Promastigotes (2 × 10^6/well) were pretreated with Sytox Green (1 µM) for 15 min, at 24°C. Then, compound 1 (169.2 µM) was added and the fluorescence was monitored every 20 min up to 4 h in a spectrofluorometer, with excitation and emission wavelengths of 485 and 535 nm, respectively ([17]). Triton X-100 (0.5% vol/vol) was employed as positive control and untreated parasites as negative control ([18]).

[3] = tested on: Erythrocytes collected from BALB/c mice; test: Hemolytic activity; type: cell-based; details: 6.25 to 200 µM, 2 h
Experimental: Erythrocytes collected from BALB/c mice were added to a U-shaped bottom 96-wells microplate at 3% (vol/vol) in phosphate-buffered saline (PBS), treated with compound 1 serially diluted ([…] to 200 µM) in PBS and incubated for 2 h at 24°C. To determine the hemolytic activity, cell supernatants were collected and analyzed in a spectrophotometer (570 nm) ([15]). Bidistilled water was employed as a positive control and untreated erythrocytes as a negative control.

In the case of `C=CCc1cc(OC)c(OCc2ccc(OC)cc2)c(Oc2ccc(CN3CCOCC3)cc2OC)c1` [compound 1, 4-(4-(5-allyl-3-methoxy-2-((4-methoxybenzyl)oxy)phenoxy)-3-methoxybenzyl)morpholine], the IL-10 levels ([1]; 10 and 60 µM, vs untreated control) is reported as “reduction”, the IL-4 levels ([1]; only at 60 µM) is reported as “significantly reduced levels” and the IL-12 levels ([1]; only at 60 µM) is reported as “significantly reduced levels”. The INF-γ levels ([1]; only at 60 µM) was “significantly reduced levels”, the plasma membrane permeability [2] was “no alteration” and the hemolysis [3] was “no hemolysis”.
